Legend:
[1] = test system: primary kidney endothelial cell cultures; experiment: Binding of Alexa-568-conjugated α1β1 integrin to treated primary kidney endothelial cells; type: cell-based, mouse
Description: Primary endothelial cells were isolated from wild type mouse kidneys using anti-CD31 coated metallic beads. Cells were cultured in endothelial cell medium (DMEM/F12, 50 μg/ml Endothelial mitogen, 1% penicillin/streptomycin, 20 mM L-Glutamine, and 1 U/mL heparin prepared fresh not filtered) containing 20% FCS. Thirty-two wells of 5×10^4 cells/well in a 96 well plate coated with 1% gelatin in sterile PBS were set up. Cells were maintained in endothelial cell media with 20% FCS until cells reached confluence. Confluent cells were washed with HBSS, then covered with endothelial cell media without serum at 200 μL/well and kept in a humidified chamber at 37° C., 5% CO2. Twenty-four hours later fresh endothelial cell medium was added without serum and various concentrations of MCP-1 and H2O2 were added at 24 or 48 hours (hrs) prior to conducting the assay for cell binding to α1β1 integrin as shown in the following Table 1.

[2] = test system: renal cortical vascular endothelium; experiment: Binding of Alexa 568-labeled purified α1β1 integrin to kidney vascular endothelium after tail vein injection; type: in vivo, mouse; conditions: 24 hours after tail vein injection
Description: If such a direct role exists, there must be a ligand for α1β1 integrin on the renal cortical vascular endothelium of Alport mice that is absent on normal mice. To test for the presence of such a ligand, purified α1β1 integrin (purchased from Chemicon, Temecula, Calif.) was labeled with Alexa 568, and the labeled integrin injected into the tail vein of normal, Alport, and DKO mice. Twenty-four hours following the injection, kidneys were harvested, and cryosections examined. […] Since monocytes phagocytize labeled dextrans, what is interpreted as integrin might be phagocytized integrin in monocytes.

[3] = Pilot stability study with Alexa-conjugated integrin α1β1; conditions: Alexa-conjugated integrin α1β1, data not shown
Description: In an attempt to provide a more definitive test for the function of α1β1 in monocyte efflux into diseased kidneys, 5 μg of purified α1β1 integrin was injected into the tail vein of Alport mice daily, starting one day before injection of labeled dextrans, and kidneys harvested three days following injection of dextrans. Pilot studies with Alexa-conjugated integrin α1β1 were conducted to assess the stability prior to the blocking experiments. […] If transendothelial migration of monocytes into the interstitial space is mediated, in part, through binding a ligand on endothelial cells, a decrease in labeled monocytes in Alport mice treated with α1β1 integrin compared to untreated age-matched Alport mice should be observed, since the purified integrin should occupy ligand, making less available for binding to monocytes.

[4] = molecular target: T1, ligand for α1β1 integrin on endothelial cells (Collagen XIII) (Mus musculus, UniProt Q9R1N9); experiment: Monocyte efflux into the interstitium of Alport kidneys after injection of purified α1β1 integrin (Alexa 568 dextran trafficking); type: in vivo; conditions: Alport mice, 5 μg purified α1β1 integrin into tail vein daily from one day before labeled dextrans, kidneys three days after dextrans, vs untreated Alport mice
T1 construct: from tissue; host or cells: vascular endothelium of kidneys of living Alport (collagen IV α3 -/-) mice
T1 sequence (Q9R1N9 whole entry): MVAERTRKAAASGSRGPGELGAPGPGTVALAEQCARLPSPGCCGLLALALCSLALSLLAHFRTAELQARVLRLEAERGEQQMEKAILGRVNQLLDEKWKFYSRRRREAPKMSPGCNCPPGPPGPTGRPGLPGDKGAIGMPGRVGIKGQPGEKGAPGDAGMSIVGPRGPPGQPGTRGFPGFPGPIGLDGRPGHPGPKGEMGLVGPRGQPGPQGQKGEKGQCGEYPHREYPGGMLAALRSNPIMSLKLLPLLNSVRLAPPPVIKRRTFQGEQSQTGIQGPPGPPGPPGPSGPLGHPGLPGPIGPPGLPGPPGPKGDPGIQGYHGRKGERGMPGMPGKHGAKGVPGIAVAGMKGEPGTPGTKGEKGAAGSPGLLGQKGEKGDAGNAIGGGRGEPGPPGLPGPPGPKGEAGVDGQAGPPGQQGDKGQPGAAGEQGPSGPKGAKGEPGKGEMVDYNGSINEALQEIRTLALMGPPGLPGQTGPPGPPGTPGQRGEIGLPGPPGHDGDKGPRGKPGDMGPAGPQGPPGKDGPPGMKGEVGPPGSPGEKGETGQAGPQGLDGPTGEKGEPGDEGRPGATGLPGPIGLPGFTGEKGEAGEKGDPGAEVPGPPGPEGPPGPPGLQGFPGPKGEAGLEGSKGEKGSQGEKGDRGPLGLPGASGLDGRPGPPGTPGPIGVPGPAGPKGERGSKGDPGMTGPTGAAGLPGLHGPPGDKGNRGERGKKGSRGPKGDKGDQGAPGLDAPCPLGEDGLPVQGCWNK
Description: Male wild type 129SV and 129SVJ mice (4-12 weeks old) along with collagen IV α3 (−/−) (Alport: 5-8 weeks old) and collagen IV α3 (−/−)/integrin α1 (−/−) double knock out (DKO: 8-12 weeks old) mice were tail vein injected with […] of Alexa 568 labeled dextran reconstituted in 100 microliters (μL) Hanks Balanced Salt Solution (pH 7.2). Three days post injection animals were given a lethal injection of averitin (0.55 grams per kilogram (g/kg) body weight; ip) followed by cardiac perfusion with ice cold PBS. Kidneys were removed and immersed in increasing concentrations of ice cold sucrose (30% max) then embedded in Tissue Tek OCT mounting medium (Sakura Finetek USA, Inc., Torrence, Calif.) and stored at −80° C.
Fresh frozen tissue sections (4 μm) were fixed in 2% paraformaldehyde for 5 minutes and allowed to dry overnight at 4° C. followed by extended storage at −20° C. or immunohistochemical detection of monocytes using rat monoclonal α-CD11b (Cedar Lane laboratories, Hornby, Ontario) and Goat anti rat Alexa 488 (Molecular Probes, Inc. Eugene, Oreg.) antibodies at 1:100 and 1:200 dilutions respectively. Sections were cover slipped with vectorshield mounting medium (Vector Corp. Burlingme, Calif.). […] Green fluorescence alone as well as co-localized dual fluorescence were measured using Image Pro Plus software (Media Cybernetics, Inc. Silver Spring, Md.). […]

With “MCP-1: recombinant monocyte chemo-attractive protein-1, a chemokine” the “adhesion of α1β1 integrin to endothelial cells” value ([1]; cells pre-treated with recombinant MCP-1 (24 or 48 hrs) vs untreated cells, time and dose dependent) was “significantly elevated adhesion”.
With “purified α1β1 integrin: purified human α1β1 integrin purchased from Chemicon, Temecula, Calif.; also used labeled with Alexa 568” the “labeling of kidney cryosections by Alexa 568-labeled integrin” value ([2]; Alport mice) was “strong labeling in the vascular endothelium”, the “labeling of kidney cryosections by Alexa 568-labeled integrin” value ([2]; normal (control) mice) was “absence of label” and the “stability of the purified integrin” value [3] was “at least 72 hours”. For the same compound, the “monocyte efflux (Alexa-labeled CD11b-positive monocytes in the interstitium)” value [4] was “a trend for a reduction in monocyte efflux”.
In the case of `OO` [hydrogen peroxide, reference compound], the “binding of Alexa-conjugated α1β1 integrin to cultured primary kidney endothelial cells” value ([1]; cells treated with hydrogen peroxide (24 or 48 hrs), concentration and time-dependent) was “promotes the binding”.

Source: patent publication US7662382B2, “Inducible ligand for α1β1 integrin and uses” (Boys Town National Research Hospital, priority 2002, dated 2010)
